# Test results reported in patent US7935694B2, “Lactam compounds useful as protein kinase inhibitors” (Millennium Pharmaceuticals, Inc., priority 2004, dated 2011).
# Target: T1, recombinant murine Aurora A enzyme (Mus musculus, UniProt P97477)
# T1 construct: hexahistidine (His6) (N); made in house; host or cells: insect cells (baculovirus, Bac-to-Bac)
# T1 sequence (P97477 1-395): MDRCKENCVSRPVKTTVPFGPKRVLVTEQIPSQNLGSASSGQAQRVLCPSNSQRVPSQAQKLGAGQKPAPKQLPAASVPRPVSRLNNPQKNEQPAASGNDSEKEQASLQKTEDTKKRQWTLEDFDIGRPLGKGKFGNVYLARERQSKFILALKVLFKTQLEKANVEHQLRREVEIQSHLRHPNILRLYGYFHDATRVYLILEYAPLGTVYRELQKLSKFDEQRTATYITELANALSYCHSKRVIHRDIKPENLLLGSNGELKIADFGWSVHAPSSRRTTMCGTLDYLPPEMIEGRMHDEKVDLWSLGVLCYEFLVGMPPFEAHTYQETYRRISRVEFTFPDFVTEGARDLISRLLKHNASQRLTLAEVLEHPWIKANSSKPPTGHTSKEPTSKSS
# Test: Aurora A DELFIA Kinase Assay
# Format: biochemical
# Conditions: 1 mM ATP, 20 nM enzyme, 10 minutes at room temperature
# Protocol: Recombinant mouse Aurora A with an amino-terminus hexahistidine tag (His-Aurora A) was expressed using a standard baculovirus vector and insect cell expression system (Bac-to-Bac®, Invitrogen). Soluble, recombinant mouse Aurora A was purified from insect cells using Ni-NTA agarose (Qiagen) as described by the manufacturer and further purified over an S75 size exclusion column (Amersham Pharmacia Biotech). The mouse Aurora A enzymatic reaction totaled 25 μL and contained 25 mM Tris-HCl (pH 8.5), 2.5 mM MgCl2, 0.05% Surfact-AMPS-20, 5 mM Sodium Fluoride, 5 mM DTT, 1 mM ATP, 3 μM peptide substrate (Biotin-β-[…]), and 20 nM recombinant murine Aurora A enzyme. The enzymatic reaction mixture, with and without Aurora inhibitors, was incubated for 10 minutes at room temperature before termination with 100 μL of stop buffer (1% BSA, 0.05% Surfact-AMPS-20, and 100 mM EDTA). A total of 100 μL of the enzyme reaction mixture was transferred to wells of a Neutravidin-coated 96-well plate (Pierce) and incubated at room temperature for 30 minutes. The wells were washed with wash buffer (25 mM Tris, 150 mM sodium chloride, and 0.1% Tween 20) and incubated for 1 hour with 100 μL of antibody reaction mixture containing 1% BSA, 0.05% Surfact-AMPS-20, anti-phospho-PKA rabbit polyclonal antibody (1:2000, New England Biolabs), and europium labeled anti-rabbit IgG (1:2000, Perkin Elmer). The wells were washed and then the bound europium was liberated using 100 μL of Enhancement Solution (Perkin Elmer). Quantification of europium was done using a WallacTM EnVision (Perkin Elmer).
row,IC50 [µM],Structure (SMILES)
1,≤ 0.5,"COc1ccc(Nc2ncc3c(n2)-c2ccc(Cl)cc2NC(=O)C3)cc1OC [Compound I-2, 9-Chloro-2-(3,4-dimethoxy-phenylamino)-5H,7H-benzo[b]pyrimido[4,5-d]azepin-6-one]"
2,≤ 0.5,"CN1C(=O)Cc2cnc(Nc3ccc(C(=O)O)cc3)nc2-c2ccc(Cl)cc21 [Compound I-7, 4-(9-Chloro-7-methyl-6-oxo-6,7-dihydro-5H-benzo[b]pyrimido[4,5-d]azepin-2-ylamino)-benzoic acid]"
3,≤ 0.5,"Cc1ccc2c(c1)NC(=O)Cc1cnc(Nc3ccc(C(=O)O)cc3)nc1-2 [Compound I-9, 4-(9-Methyl-6-oxo-6,7-dihydro-5H-benzo[b]pyrimido[4,5-d]azepin-2-ylamino)-benzoic acid]"
4,≤ 0.5,"O=C(O)c1ccc(Nc2ncc3c(n2)-c2ccc(Cl)cc2N(c2ccccc2)C(=O)C3)cc1 [Compound I-10, 4-(9-Chloro-6-oxo-7-phenyl-6,7-dihydro-5H-benzo[b]pyrimido[4,5-d]azepin-2-ylamino)-benzoic acid]"
5,≤ 5,"COc1ccc(Nc2ncc3c(n2)-c2cc(Br)ccc2NC(=O)C3)cc1OC [Compound I-18, 10-Bromo-2-(3,4-dimethoxy-phenylamino)-5H,7H-benzo[b]pyrimido[4,5-d]azepin-6-one]"
6,≤ 0.5,"COc1ccc(Nc2ncc3c(n2)-c2ccccc2NC(=O)C3)cc1OC [Compound I-27, 2-(3,4-Dimethoxy-phenylamino)-5H,7H-benzo[b]pyrimido[4,5-d]azepin-6-one]"
7,≤ 0.5,"COc1ccc(Nc2ncc3c(n2)-c2ccc(I)cc2NC(=O)C3)cc1OC [Compound I-30, 2-(3,4-dimethoxy-phenylamino)-9-iodo-5H,7H-benzo[b]pyrimido[4,5-d]azepin-6-one]"
8,≤ 0.5,"COc1ccc(Nc2ncc3c(n2)-c2ccc(C#CCN4CCCC4)cc2NC(=O)C3)cc1OC [Compound I-32, 2-(3,4-Dimethoxy-phenylamino)-9-(3-pyrrolidin-1-yl-prop-1-ynyl)-5H,7H benzo[b]pyrimido[4,5-d]azepin-6-one]"
9,≤ 0.5,"C#Cc1ccc2c(c1)NC(=O)Cc1cnc(Nc3ccc(OC)c(OC)c3)nc1-2 [Compound I-33, 2-(3,4-dimethoxy-phenylamino)-9-ethynyl-5H,7H-benzo[b]pyrimido[4,5-d]azepin-6-one]"
10,≤ 0.5,"CCc1ccc2c(c1)NC(=O)Cc1cnc(Nc3ccc(OC)c(OC)c3)nc1-2 [Compound I-37, 2-(3,4-Dimethoxy-phenylamino)-9-ethyl-5H,7H-benzo[b]pyrimido[4,5-d]azepin-6-one]"
11,≤ 0.5,"COc1ccc(Nc2ncc3c(n2)-c2ccc(C#CCN)cc2NC(=O)C3)cc1OC [Compound I-38, 9-(3-Amino-prop-1-ynyl)-2-(3,4-dimethoxy-phenylamino)-5H,7H-benzo[b]pyrimido[4,5-d]azepin-6-one]"
12,≤ 0.5,"COc1ccc(Nc2ncc3c(n2)-c2ccc(C)cc2NC(=O)C3)cc1OC [Compound I-42, 2-(3,4-Dimethoxy-phenylamino)-9-methyl-5H,7H-benzo[b]pyrimido[4,5-d]azepin-6-one]"
13,≤ 0.5,"O=C1Cc2cnc(Nc3ccc(C#CCN4CCCC4)cc3)nc2-c2ccc(Cl)cc2N1 [Compound I-47, 9-Chloro-2-[4-(3-pyrrolidin-1-yl-prop-1-ynyl)-phenylamino]-5H,7H-benzo[b]-pyrimido[4,5-d]azepin-6-one]"
14,≤ 0.5,"COc1ccc(Nc2ncc3c(n2)-c2ccc(CCCN4CCCC4)cc2NC(=O)C3)cc1OC [Compound I-49, 2-(3,4-Dimethoxy-phenylamino)-9-(3-pyrrolidin-1-yl-propyl)-5H,7H-benzo[b]-pyrimido[4,5-d]azepin-6-one]"
15,≤ 0.5,"COc1ccc(Nc2ncc3c(n2)-c2ccc(CCCN)cc2NC(=O)C3)cc1OC [Compound I-50, 9-(3-Amino-propyl)-2-(3,4-dimethoxy-phenylamino)-5H,7H-benzo[b]pyrimido[4,5-d]azepin-6-one]"
16,≤ 0.5,"COc1ccc(Nc2ncc3c(n2)-c2ccc(C(=O)O)cc2NC(=O)C3)cc1OC [Compound I-53, 2-(3,4-dimethoxy-phenylamino)-6-oxo-6,7-dihydro-5H-benzo[b]pyrimido[4,5-d]azepine-9-carboxylic acid]"
17,≤ 0.5,"NCCNC(=O)c1cccc(Nc2ncc3c(n2)-c2ccc(Cl)cc2NC(=O)C3)c1 [Compound I-62, N-(2-Amino-ethyl)-3-(9-chloro-6-oxo-6,7-dihydro-5H-benzo[b]pyrimido[4,5-d]azepin-2-ylamino)-benzamide]"
18,≤ 0.5,"NCCCCNC(=O)c1cccc(Nc2ncc3c(n2)-c2ccc(Cl)cc2NC(=O)C3)c1 [Compound I-64, N-(4-Amino-butyl)-3-(9-chloro-6-oxo-6,7-dihydro-5H-benzo[b]pyrimido[4,5-d]azepin-2-ylamino)-benzamide]"
19,≤ 0.5,"O=C1Cc2cnc(Nc3ccc(CCCN4CCCC4)cc3)nc2-c2ccc(Cl)cc2N1 [Compound I-66, 9-Chloro-2-[4-(3-pyrrolidin-1-yl-propyl)-phenylamino]-5H,7H-benzo[b]pyrimido[4,5-d]-azepin-6-one]"
20,≤ 0.5,"NCC#Cc1cccc(Nc2ncc3c(n2)-c2ccc(Cl)cc2NC(=O)C3)c1 [Compound I-67, 2-[3-(3-Amino-prop-1-ynyl)-phenylamino]-9-chloro-5H,7H-benzo[b]pyrimido[4,5-d]azepin-6-one]"
21,≤ 0.5,"COc1ccc(Nc2ncc3c(n2)-c2ccc(C(N)=O)cc2NC(=O)C3)cc1OC [Compound I-70, 2-(3,4-dimethoxy-phenylamino)-6-oxo-6,7-dihydro-5H-benzo[b]pyrimido[4,5-d]azepine-9-carboxylic acid amide]"
22,≤ 0.5,"COc1ccc(Nc2ncc3c(n2)-c2ccc(C(=O)NCCN)cc2NC(=O)C3)cc1OC [Compound I-71, 2-(3,4-Dimethoxy-phenylamino)-6-oxo-6,7-dihydro-5H-benzo[b]pyrimido[4,5-d]azepine-9-carboxylic acid (2-amino-ethyl)-amide]"
23,≤ 0.5,"COc1ccc(Nc2ncc3c(n2)-c2ccc(C(=O)NCCCN)cc2NC(=O)C3)cc1OC [Compound I-72, 2-(3,4-Dimethoxy-phenylamino)-6-oxo-6,7-dihydro-5H-benzo[b]pyrimido[4,5-d]azepine-9-carboxylic acid (3-amino-propyl)-amide]"
24,≤ 0.5,"COc1ccc(Nc2ncc3c(n2)-c2ccc(C(=O)NCCCCN)cc2NC(=O)C3)cc1OC [Compound I-73, 2-(3,4-Dimethoxy-phenylamino)-6-oxo-6,7-dihydro-5H-benzo[b]pyrimido[4,5-d]azepine-9-carboxylic acid (4-amino-butyl)-amide]"
25,≤ 0.5,"CCCc1ccc2c(c1)NC(=O)Cc1cnc(Nc3ccc(OC)c(OC)c3)nc1-2 [Compound I-82, 2-(3,4-Dimethoxy-phenylamino)-9-propyl-5H,7H-benzo[b]pyrimido[4,5-d]azepin-6-one]"
26,≤ 0.5,"NCCc1cccc(Nc2ncc3c(n2)-c2ccc(Cl)cc2NC(=O)C3)c1 [Compound I-86, 2-[3-(2-Amino-ethyl)-phenylamino]-9-chloro-5H,7H-benzo[b]pyrimido[4,5-d]azepin-6-one]"
27,≤ 0.5,"CNCCCc1ccc2c(c1)NC(=O)Cc1cnc(Nc3ccc(OC)c(OC)c3)nc1-2 [Compound I-87, 2-(3,4-Dimethoxy-phenylamino)-9-(3-methylamino-propyl)-5H,7H-benzo[b]pyrimido[4,5-d]azepin-6-one]"
28,≤ 0.5,"COc1ccc(Nc2ncc3c(n2)-c2ccc(CCCN(C)C)cc2NC(=O)C3)cc1OC [Compound I-88, 2-(3,4-Dimethoxy-phenylamino)-9-(3-dimethylamino-propyl)-5H,7H-benzo[b]pyrimido[4,5-d]azepin-6-one]"
29,≤ 0.5,"O=C1Cc2cnc(Nc3cccc(C#CCN4CCCC4)c3)nc2-c2ccc(Cl)cc2N1 [Compound I-89, 9-Chloro-2-[3-(3-pyrrolidin-1-yl-prop-1-ynyl)-phenylamino]-5H,7H-benzo[b]-pyrimido[4,5-d]azepin-6-one]"
30,≤ 0.5,"COc1ccc(Nc2ncc3c(n2)-c2ccc(C#CCN(C)C)cc2NC(=O)C3)cc1OC [Compound I-91, 2-(3,4-Dimethoxy-phenylamino)-9-(3-dimethylamino-prop-1-ynyl)-5H,7H-benzo[b]pyrimido[4,5-d]azepin-6-one]"
